# Legend:
# Assay type in all cases: biochemical
# [1] = target: T1, CDK4/cyclin D3 complex (Homo sapiens, UniProt P11802); assay: Inhibition of CDK4/Cyclin D retinoblastoma kinase activity; details: apparent Ki
# T1 construct: made in house; host or cells: insect cells co-infected with baculovirus expression vectors
# Method: (§1) Cyclin-dependent kinase activity was measured by quantifying the enzyme-catalyzed, time-dependent incorporation of radioactive phosphate from [^32P]ATP or [^33P]ATP into a protein substrate. Unless noted otherwise, assays were performed in 96-well plates in a total volume of 50 μL, in the presence of 10 mM HEPES (N-[2-hydroxyethyl]piperazine-N′-[2-ethanesulfonic acid]) (pH 7.4). 10 mM MgCI2, 25 μM adenosine triphosphate (ATP), 1 mg/mL ovalbumin, 5 μg/mL leupeptin, 1 mM dithiothreitol, 10 mM beta-glycerophosphate, 0.1 mM sodium vanadate, 1 mM sodium fluoride, 2.5 mM ethylene glycol-bis(β-aminoethyl ethKer)-N,N,N′N′-tetraacetic acid (EGTA), 2% (v/v) dimethylsulfoxide, and 0.03-0.4 μCi [^32/33P]ATP per reaction. Reactions were initiated with enzyme, incubated at 30° C. and terminated after 20 minutes by the addition ofethylenediaminetetraacetic acid (EDTA) to 250 mM. The phosphorylated substrate was then captured on a nitrocellulose or phosphocellulose membrane using a 96-well filtration manifold, and unincorporated radioactivity was removed by repeated washing with 0.85% phosphoric acid. Radioactivity was quantified by exposing the dried membranes to a phosphorimager.
# (§2) Apparent Ki values were measured by assaying enzyme activity in the presence of different inhibitor compound concentrations and subtracting the background radioactivity measured in the absence of enzyme. Inhibition data were fit to an equation for competitive inhibition using Kaleidagraph (Synergy Software), or were fit to an equation for competitive tight-binding inhibition using the software KineTic (BioKin, Ltd.).
# A complex of human CDK4 and cyclin D3, or a complex of human CDK4 and genetically truncated (1-264) cyclin D3, was purified using traditional biochemical chromatographic techniques from insect cells that had been co-infected with the corresponding baculovirus expression vectors ((see e.g., Meijer and Kim, “Chemical Inhibitors of Cyclin-Dependent Kinases,” Methods in Enzymol,. vol. 283, pp. 113-128 (1997)). The enzyme complex (5 or 50 nM) was assayed with 0.3-0.5 μg of purified recombinant retinoblastoma protein fragment (Rb) as a substrate. The engineered Rb fragment (residues 386-928 of the native retinoblastoma protein; 62.3 kDa) contains the majority of the phosphorylation sites found in the native 106-kDa protein, as well as a tag of six histidine residues for ease of purification. Phosphorylated Rb substrate was captured by microfiltration on a nitrocellulose membrane and quantified using a phosphorimager as described above. For measurement of tight-binding inhibitors, the enzyme complex concentration was lowered to 5 nM, and the assay duration was extended to 60 minutes, during which the time-dependence of product formation was linear.
# [2] = target: T2, VEGF-R2 (VEGF-R2Δ50 construct) (Homo sapiens, UniProt P35968, DEL940-989/E990V); assay: VEGF-R2 assay; details: read-out: Percent Inhibition VEGF
# T2 construct: VEGF-R2Δ50 contains residues 806-939 and 990-1171; made in house; host or cells: baculovirus/insect cell system
# T2 sequence (P35968 with tags, fused parts or gaps DEL940-989/E990V limits assumed): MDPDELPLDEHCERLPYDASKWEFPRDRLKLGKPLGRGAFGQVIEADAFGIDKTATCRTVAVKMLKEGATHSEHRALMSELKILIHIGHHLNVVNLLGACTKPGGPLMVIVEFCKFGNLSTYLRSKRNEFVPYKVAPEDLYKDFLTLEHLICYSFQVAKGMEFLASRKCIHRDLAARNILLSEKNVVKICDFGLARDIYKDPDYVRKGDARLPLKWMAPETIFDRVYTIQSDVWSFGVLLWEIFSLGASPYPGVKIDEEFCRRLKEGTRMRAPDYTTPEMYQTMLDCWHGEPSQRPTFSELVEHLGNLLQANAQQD
# Excerpt: This construct determines the ability of a test compound to inhibit tyrosine kinase activity. A construct (VEGF-R2Δ50) of the cytosolic domain of human vascular endothelial growth factor receptor 2 (VEGF-R2) lacking the 50 central residues of the 68 residues of the kinase insert domain was expressed in a baculovirus/insect cell system. This construct is described by McTigue et al. in Structure, vol. 7, pp. 319-330 (1999) and co-pending U.S. patent application Ser. No. 09/390,326, filed Sep. 7, 1999. Of the 1356 residues of full-length VEGF-R2, VEGF-R2Δ50 contains residues 806-939 and 990-1171, and also one point mutation (E990V) within the kinase insert domain relative to wild-type VEGF-R2. […]
# The production of ADP from ATP that accompanies phosphoryl transfer was coupled to oxidation of NADH using phosphoenolpyruvate (PEP) and a system having pyruvate kinase (PK) and lactic dehydrogenase (LDH). The oxidation of NADH was monitored by following the decrease of absorbance at 340 nm (e340=6.22 cm^−1 mM^−1) using a Beckman DU 650 spectrophotometer. […] Ki values were determined by measuring enzyme activity in the presence of varying concentrations of test compounds. The data were analyzed using Enzyme Kinetic and Kaleidagraph software.
# Formation of phosphogastrin was monitored using biotinylated gastrin peptide (1-17) as substrate. […]
# [3] = target: T3, CDK2/cyclin A complex (Homo sapiens, UniProt P24941); assay: Inhibition of CDK2/Cyclin A retinoblastoma kinase activity; details: apparent Ki
# T3 construct: made in house; host or cells: CDK2: insect cells (baculovirus); cyclin A: E. coli
# Method: as §1, §2
# CDK2 was purified using published methodology (Rosenblatt et al., “Purification and Crystallization of Human Cyclin-dependent Kinase 2,” J. Mol. Biol., vol. 230, pp. 1317-1319 (1993)) from insect cells that had been infected with a baculovirus expression vector. […] Ki values were measured as described above.
# T1 sequence (P11802 whole entry): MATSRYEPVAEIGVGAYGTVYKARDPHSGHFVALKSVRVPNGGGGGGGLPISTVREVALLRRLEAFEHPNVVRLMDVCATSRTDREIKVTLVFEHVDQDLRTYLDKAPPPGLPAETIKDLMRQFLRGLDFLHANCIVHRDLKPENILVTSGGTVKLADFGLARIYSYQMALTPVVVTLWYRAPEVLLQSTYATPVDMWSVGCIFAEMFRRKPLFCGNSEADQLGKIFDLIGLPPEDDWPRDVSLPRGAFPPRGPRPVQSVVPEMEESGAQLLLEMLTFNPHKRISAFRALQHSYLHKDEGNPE
# T1 sequence (P30281 whole entry partner): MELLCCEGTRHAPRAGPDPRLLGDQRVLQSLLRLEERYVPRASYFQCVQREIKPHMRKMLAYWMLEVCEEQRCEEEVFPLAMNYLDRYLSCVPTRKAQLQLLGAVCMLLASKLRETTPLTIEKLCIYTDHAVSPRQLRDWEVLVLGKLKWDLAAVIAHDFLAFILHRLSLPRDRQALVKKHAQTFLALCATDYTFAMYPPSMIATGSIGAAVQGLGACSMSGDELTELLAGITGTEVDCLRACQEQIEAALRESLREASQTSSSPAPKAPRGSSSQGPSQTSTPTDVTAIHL
Ki [1],inhibition at 5 µM [2],Ki [3],SMILES
3.1 µM,21%,6.2 µM,c1ccc(Nc2cc(-c3csc4ccccc34)[nH]n2)cc1 [Compound B]
26.2 µM,10%,25.8 µM,"c1ccc(Nc2cc(-c3cccs3)[nH]n2)cc1 [Compound A, Phenyl-(5-thiophen-2-yl-1H-pyrazol-3-yl)-amine]"

# — patent publication US6462069B2, “Compounds, pharmaceutical compositions, and methods for inhibiting protein kinases” (Agouron Pharmaceuticals, Inc., priority 2000, dated 2002)
